The values below come from patent US20230190760A1, “ADVANTAGEOUS THERAPIES FOR DISORDERS MEDIATED BY IKAROS OR AIOLOS” (C4 Therapeutics, Inc., priority 2020, published 2023).

The subject of experiment [1] is Caspase 3/7 activity in NCIH929 multiple myeloma cells. The experiment can be described thus: Apoptosis induction, Caspase 3/7 activity in NCIH929 cells. The experiment is classed as cell-based.
Method: 30 μL NCIH929 cells were seeded into the 384-well plates in RPMI medium containing 10% FBS and 0.05 mM 2-mercaptoethanol at a cell density of 1000 cells per well. Cells treated in the absence of the test compound were the negative control. Following compound treatment, cells were incubated at 37° C. with 5% CO2 for 72 hr. 30 μL reconstituted Caspase 3/7 Assay detection reagent was added to each well and luminescence was acquired on EnVision™ Multilabel Reader (PerkinElmer, Santa Clara, Calif., USA).
In experiment [2] the target is T1, Sal-like protein 4 (SALL4) (Homo sapiens, UniProt Q96SW2+Q9UJQ4).
T1 construct: endogenous in cells; host or cells: KELLY neuroblastoma cell line
T1 sequence (Q9UJQ4 whole entry): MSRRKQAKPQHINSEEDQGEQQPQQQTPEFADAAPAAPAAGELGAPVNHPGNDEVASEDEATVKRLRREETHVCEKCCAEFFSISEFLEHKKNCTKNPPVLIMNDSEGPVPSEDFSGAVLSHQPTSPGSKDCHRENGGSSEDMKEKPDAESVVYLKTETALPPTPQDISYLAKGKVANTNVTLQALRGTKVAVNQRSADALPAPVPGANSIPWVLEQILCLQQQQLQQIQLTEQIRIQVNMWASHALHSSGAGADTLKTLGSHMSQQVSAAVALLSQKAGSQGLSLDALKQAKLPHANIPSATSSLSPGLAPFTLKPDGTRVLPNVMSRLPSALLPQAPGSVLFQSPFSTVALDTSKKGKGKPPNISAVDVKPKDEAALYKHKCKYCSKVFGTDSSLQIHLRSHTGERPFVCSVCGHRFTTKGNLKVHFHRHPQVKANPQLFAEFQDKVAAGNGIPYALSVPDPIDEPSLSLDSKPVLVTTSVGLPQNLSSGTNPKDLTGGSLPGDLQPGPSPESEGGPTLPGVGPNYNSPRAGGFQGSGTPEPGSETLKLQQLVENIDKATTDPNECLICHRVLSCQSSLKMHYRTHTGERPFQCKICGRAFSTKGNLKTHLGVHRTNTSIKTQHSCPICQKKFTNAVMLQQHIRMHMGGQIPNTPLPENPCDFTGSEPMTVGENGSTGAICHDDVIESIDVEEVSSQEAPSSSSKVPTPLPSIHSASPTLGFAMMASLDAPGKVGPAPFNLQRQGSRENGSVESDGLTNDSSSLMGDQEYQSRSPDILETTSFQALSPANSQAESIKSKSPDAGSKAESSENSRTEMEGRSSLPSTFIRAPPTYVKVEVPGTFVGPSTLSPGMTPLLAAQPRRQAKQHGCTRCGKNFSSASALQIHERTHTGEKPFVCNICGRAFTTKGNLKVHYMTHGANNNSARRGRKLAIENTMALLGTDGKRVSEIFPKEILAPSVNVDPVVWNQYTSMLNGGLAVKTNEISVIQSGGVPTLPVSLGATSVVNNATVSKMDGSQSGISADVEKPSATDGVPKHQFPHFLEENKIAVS
T1 sequence (Q96SW2 whole entry): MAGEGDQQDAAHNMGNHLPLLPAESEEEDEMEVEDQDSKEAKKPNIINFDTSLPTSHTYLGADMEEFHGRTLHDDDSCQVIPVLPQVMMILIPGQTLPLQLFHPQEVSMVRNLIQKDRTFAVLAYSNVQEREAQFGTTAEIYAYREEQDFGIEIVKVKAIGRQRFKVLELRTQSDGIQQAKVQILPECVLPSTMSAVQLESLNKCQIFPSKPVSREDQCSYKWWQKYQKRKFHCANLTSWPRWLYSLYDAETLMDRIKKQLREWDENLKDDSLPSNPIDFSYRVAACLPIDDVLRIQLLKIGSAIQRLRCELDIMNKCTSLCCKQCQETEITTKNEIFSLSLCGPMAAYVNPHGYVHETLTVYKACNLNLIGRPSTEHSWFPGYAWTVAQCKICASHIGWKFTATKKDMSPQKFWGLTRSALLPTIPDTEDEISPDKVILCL
T1 sequence (Q16531 2-1140 partner limits assumed): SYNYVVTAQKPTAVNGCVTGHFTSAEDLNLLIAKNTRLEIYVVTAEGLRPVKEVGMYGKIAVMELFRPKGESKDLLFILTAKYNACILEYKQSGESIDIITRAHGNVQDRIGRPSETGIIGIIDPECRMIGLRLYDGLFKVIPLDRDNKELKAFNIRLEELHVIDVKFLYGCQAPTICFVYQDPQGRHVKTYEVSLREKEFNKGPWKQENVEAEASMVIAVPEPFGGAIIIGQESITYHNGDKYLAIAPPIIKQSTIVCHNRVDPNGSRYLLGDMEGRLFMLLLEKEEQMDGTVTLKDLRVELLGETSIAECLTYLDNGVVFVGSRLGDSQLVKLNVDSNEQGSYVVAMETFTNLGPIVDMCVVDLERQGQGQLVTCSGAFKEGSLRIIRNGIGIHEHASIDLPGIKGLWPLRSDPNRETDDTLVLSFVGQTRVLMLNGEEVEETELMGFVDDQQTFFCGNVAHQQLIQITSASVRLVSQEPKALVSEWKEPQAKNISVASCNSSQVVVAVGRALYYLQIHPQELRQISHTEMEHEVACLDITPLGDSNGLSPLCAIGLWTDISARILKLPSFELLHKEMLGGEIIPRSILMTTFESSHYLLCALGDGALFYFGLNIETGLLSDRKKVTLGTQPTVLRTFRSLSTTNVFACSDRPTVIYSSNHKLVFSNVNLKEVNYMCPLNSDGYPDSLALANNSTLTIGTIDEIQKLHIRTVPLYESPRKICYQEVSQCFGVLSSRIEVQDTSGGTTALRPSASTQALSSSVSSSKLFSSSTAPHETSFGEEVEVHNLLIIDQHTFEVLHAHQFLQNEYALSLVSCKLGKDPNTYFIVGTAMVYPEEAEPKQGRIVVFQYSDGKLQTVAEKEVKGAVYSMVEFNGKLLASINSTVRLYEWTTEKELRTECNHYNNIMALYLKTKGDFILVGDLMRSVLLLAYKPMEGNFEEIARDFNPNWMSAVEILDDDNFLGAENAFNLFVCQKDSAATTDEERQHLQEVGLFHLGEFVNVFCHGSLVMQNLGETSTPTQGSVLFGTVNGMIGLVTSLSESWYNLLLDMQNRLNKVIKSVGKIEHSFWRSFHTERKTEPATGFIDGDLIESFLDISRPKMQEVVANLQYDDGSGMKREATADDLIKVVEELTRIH
The experiment can be described thus: SALL4 degradation in KELLY neuroblastoma cell line. The note with it: at 10 nM. The experiment is classed as cell-based. As for the experimental part: Specific studies were carried out to assess the ability of Compound 1 to degrade Sal-like protein 4 (SALL4), a protein implicated in the teratogenicity induced by the IMiD®s class of IKZF1/IKZF3 degraders.

For experiment [3], the system named is MM1.S multiple myeloma tumors. Nature of the experiment: Disseminated MM1.S-Luc multiple myeloma model, bioluminescence. The experiment is classed as in vivo, mice. The note with it: 300 μg/kg QD orally. As for the experimental part: Compound 1 was administered at 300 μg/kg QD (every day) orally to female NOD SCID mice with disseminated MM1.S multiple myeloma tumors with a measurable MM1.S tumor burden on day 0 and dosed PO daily for 3 weeks. […] Data are expressed as mean BLI±SEM.
A xenograft study was conducted. Female SCID animals were irradiated with a 200 rads Co60 irradiator source and after 24 hours, animals were inoculated via tail vein injection with 1×107 MM1.S-Luc in 200 μL PBS. Tumor burden was measured twice weekly using imaging analysis. Mice were injected intraperitoneally with 15 mg/mL of D-luciferin and anesthetized with 1-2% isoflurane inhalation. 10 minutes post luciferin injection, mice were imaged using IVIS Lumina II (Perkin Elmer) and total bioluminescence signal (BLI, photons/s) was measured in a region of interest (ROI). BLI from ROI were quantified and used as an indicator of tumor burden. 29 days post tumor cell inoculation mice were randomized into two groups, with 3 mice per group and an average BLI of 17×10^6 photons. FIG. 6 are images of the mice administered Compound 1 compared to the mice administered vehicle. Images were taken on days 4, 7, 11, 14, and 18.

Experiment [4] has as its system IKZF1, IKZF3, IRF-1, IRF-4 and Caspase-3. Nature of the experiment: KI-JK ALCL tumor protein expression, western blot (Example 20). It counts as in vivo, mice. The note with it: 100 μg/kg PO. As for the experimental part:
A second xenograft study was conducted in female NOD SCID mice bearing KI-JK ALCL tumors. […] Once tumors reached a mean tumor volume (MTV) of 450 mm^3 they were stratified into two groups.
For the vehicle control group, 2 mice were sacrificed, and tumors harvested 24 hours post a single dose. Mice in the Compound 1 group were sampled at 4- and 24-hours post dose a single dose, with two tumors collected per time point. Additional mice were dosed daily for 5 or 7 days with tumor collections 24 hours post last dose, with 2 mice sampled per time point. Tumors were then mechanically homogenized, and protein extracted using RIPA buffer (Sigma Aldrich). Protein concentration was quantified using a Pierce™ BCA Protein Assay Kit, samples were reduced, and equal protein amounts were then loaded onto a western blot gel for analysis. Tumors were analyzed for IKZF1 (Invitrogen, PA5-23728), IKZF3 (CST, 15103), IRF-1 (CST, 8478), IFR-4 (CST, 15106), and Caspase-3 (CST, 9662) expression. […] Data is expressed as percentage of each target in comparison to the target level measured in the vehicle control and normalized to GAPDH levels to control for protein loading. Error bars represent ±SEM values.

The subject of experiment [5] is SU-DHL-5. Nature of the experiment: Anti-proliferative activity, 96 hours. The note with it: Homo sapiens, SU-DHL-5, 96 h.
Experiment [6] concerns HuT 102. Nature of the experiment: Anti-proliferative activity, 96 hours. To be noted: HuT-102, 96 h.
In experiment [7] the test system is Maver-1. Nature of the experiment: Anti-proliferative activity, 96 hours. The note with it: Homo sapiens, Maver1, 96 h.

Structures are written as SMILES.

One may read the IC50 as the point on the concentration scale where inhibition reaches its midpoint. Regarding `O=C1CC[C@H](N2C(=O)c3cccc4c(Cc5ccc(CN6CCOCC6)cc5)ccc2c34)C(=O)N1` (single isomer, unassigned) [Compound 1], the “Maximum caspase 3/7 activity” value in experiment [1] (72 hours) was greater than 2 fold. Besides, the EC50 in experiment [1] (Homo sapiens, NCI-H929, 72 h, read-out: EC50, caspase 3/7 activity) was 0.58 nM. In addition, in experiment [2], the “degradation of SALL4” value is on record as “more than 85%”. Besides, the total bioluminescence signal entry in experiment [3] is “significantly less than the mice administered vehicle”. Further, the “concentration of caspase-3 and IRF-1” value in experiment [4] is reported as “increased”. The “percentage of IKZF1, IKZF3, and IRF-4” value in experiment [4] is listed as “decreased”. The IC50 in experiment [5] was 6.37 nM; in experiment [6], 15.4 nM; in experiment [7], 12.1 nM.
